Measurements published in ChEMBL document CHEMBL1142810, “Discovery of a potent and selective 5-ht5A receptor antagonist by high-throughput chemistry” (Bioorg Med Chem Lett, 2005).
pKi: −log10 of the molar value. One block for each compound: values may come before it.

Columns and labels:
[1] = molecular target: 5-hydroxytryptamine receptor 5A (Homo sapiens, UniProt P47898); assay: Binding affinity towards human 5-hydroxytryptamine receptor 5A expressed in CHO cells using the radioligand [3H]LSD; type: cell-based
D(2) dopamine receptor = D(2) dopamine receptor (Homo sapiens, UniProt P14416); assay: Binding affinity towards human dopamine receptor D2 expressed in CHO cells using the radioligand [125I]iodosulpiride; type: cell-based
[2] = molecular target: 5-hydroxytryptamine receptor 6 (Homo sapiens, UniProt P50406); assay: Binding affinity towards human 5-hydroxytryptamine receptor 6 expressed in HeLa cells using the radioligand [3H]LSD; type: cell-based
[3] = molecular target: T1, 5-hydroxytryptamine receptor 1F (Homo sapiens, UniProt P30939); assay: Binding affinity towards human 5-hydroxytryptamine receptor 1F expressed in HEK 293 cells using the radioligand [3H]5-HT; type: cell-based, HEK293
T1 sequence (P30939 whole entry): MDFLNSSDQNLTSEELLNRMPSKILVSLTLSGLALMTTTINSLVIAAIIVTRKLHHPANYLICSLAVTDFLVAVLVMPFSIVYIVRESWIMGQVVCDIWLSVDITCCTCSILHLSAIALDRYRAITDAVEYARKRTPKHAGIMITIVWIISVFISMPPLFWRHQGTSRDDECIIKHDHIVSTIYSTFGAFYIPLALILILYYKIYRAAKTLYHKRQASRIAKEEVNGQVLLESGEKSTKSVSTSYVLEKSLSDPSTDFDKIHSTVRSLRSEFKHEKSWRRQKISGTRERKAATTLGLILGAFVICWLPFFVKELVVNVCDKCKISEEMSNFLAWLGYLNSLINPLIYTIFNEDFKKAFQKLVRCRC

D(4) dopamine receptor = molecular target: T2, D(4) dopamine receptor (Homo sapiens, UniProt P21917); assay: Binding affinity towards human dopamine receptor D4 expressed in CHO cells using the radioligand [125I]iodosulpiride; type: cell-based
T2 sequence (P21917 whole entry): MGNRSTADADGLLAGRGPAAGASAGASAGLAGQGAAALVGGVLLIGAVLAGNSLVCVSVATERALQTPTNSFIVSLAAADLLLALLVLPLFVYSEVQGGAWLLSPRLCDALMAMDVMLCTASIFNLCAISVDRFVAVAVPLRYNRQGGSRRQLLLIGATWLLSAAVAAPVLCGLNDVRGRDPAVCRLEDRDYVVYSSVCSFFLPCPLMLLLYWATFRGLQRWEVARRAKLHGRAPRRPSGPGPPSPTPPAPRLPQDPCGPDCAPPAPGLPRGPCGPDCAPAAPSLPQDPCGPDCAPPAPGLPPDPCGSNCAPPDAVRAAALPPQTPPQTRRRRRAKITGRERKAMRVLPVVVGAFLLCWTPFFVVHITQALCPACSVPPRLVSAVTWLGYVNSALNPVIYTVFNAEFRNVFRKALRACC

[4] = molecular target: 5-hydroxytryptamine receptor 1E (Homo sapiens, UniProt P28566); assay: Binding affinity towards human 5-hydroxytryptamine receptor 1E expressed in HEK 293 cells using the radioligand [3H]5-HT; type: cell-based, HEK293
[5] = molecular target: 5-hydroxytryptamine receptor 7 (Homo sapiens, UniProt P34969); assay: Binding affinity towards human 5-hydroxytryptamine receptor 7 expressed in HEK 293 cells using the radioligand [3H]5-CT; type: cell-based, HEK293
[6] = molecular target: 5-hydroxytryptamine receptor 2A (Homo sapiens, UniProt P28223); assay: Binding affinity towards human 5-hydroxytryptamine receptor 2A expressed in HEK 293 cells using the radioligand [3H]ketanserin; type: cell-based, HEK293
[7] = molecular target: 5-hydroxytryptamine receptor 1D (Homo sapiens, UniProt P28221); assay: Binding affinity towards human 5-hydroxytryptamine receptor 1D expressed in CHO cells using the radioligand [3H]5-HT; type: cell-based
[8] = molecular target: 5-hydroxytryptamine receptor 2B (Homo sapiens, UniProt P41595); assay: Binding affinity towards human 5-hydroxytryptamine receptor 2B expressed in HEK 293 cells using the radioligand [3H]5-HT; type: cell-based, HEK293
[9] = molecular target: 5-hydroxytryptamine receptor 1B (Homo sapiens, UniProt P28222); assay: Binding affinity towards human 5-hydroxytryptamine receptor 1B expressed in CHO cells using the radioligand [3H]5-HT; type: cell-based
[10] = molecular target: T3, Alpha-1B adrenergic receptor (Homo sapiens, UniProt P35368); assay: Binding affinity towards human alpha-1B-adrenergic receptor expressed in CHO cells using the radioligand [3H]prazosin; type: cell-based
T3 sequence (P35368 whole entry): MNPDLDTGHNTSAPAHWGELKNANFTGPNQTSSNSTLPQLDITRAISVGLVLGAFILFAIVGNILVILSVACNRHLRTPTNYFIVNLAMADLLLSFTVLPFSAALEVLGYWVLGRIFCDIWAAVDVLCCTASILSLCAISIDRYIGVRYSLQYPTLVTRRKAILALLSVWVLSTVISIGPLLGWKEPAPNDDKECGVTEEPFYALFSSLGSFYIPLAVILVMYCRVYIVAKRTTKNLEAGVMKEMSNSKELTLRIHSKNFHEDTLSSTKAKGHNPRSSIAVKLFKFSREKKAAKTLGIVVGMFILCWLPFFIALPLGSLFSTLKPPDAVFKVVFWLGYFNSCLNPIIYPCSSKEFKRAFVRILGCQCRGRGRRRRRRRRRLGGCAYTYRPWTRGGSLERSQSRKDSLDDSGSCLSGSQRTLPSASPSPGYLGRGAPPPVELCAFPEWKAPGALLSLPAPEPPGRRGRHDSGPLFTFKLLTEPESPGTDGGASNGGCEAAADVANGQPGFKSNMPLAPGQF

[11] = molecular target: T4, 5-hydroxytryptamine receptor 2C (Homo sapiens, UniProt P28335); assay: Binding affinity towards human 5-hydroxytryptamine receptor 2C expressed in HEK 293 cells using the radioligand [3H]mesulergine; type: cell-based, HEK293
T4 sequence (P28335 whole entry): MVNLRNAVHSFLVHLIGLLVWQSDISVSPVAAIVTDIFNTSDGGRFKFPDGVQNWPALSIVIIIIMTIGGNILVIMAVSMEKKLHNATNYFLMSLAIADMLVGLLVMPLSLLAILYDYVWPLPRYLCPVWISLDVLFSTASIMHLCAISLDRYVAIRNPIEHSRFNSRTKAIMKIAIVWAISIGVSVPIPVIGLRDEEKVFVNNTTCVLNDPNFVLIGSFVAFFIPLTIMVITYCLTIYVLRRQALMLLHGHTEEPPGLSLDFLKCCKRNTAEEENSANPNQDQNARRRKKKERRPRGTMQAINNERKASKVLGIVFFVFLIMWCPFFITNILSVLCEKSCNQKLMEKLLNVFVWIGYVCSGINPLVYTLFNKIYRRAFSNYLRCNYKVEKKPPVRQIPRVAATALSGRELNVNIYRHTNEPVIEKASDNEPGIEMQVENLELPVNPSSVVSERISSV

[12] = molecular target: T5, 5-hydroxytryptamine receptor 1A (Homo sapiens, UniProt P08908); assay: Binding affinity towards human 5-hydroxytryptamine receptor 1A expressed in HEK 293 cells using the radioligand [3H]8-OH-DPAT; type: cell-based, HEK293
T5 sequence (P08908 whole entry): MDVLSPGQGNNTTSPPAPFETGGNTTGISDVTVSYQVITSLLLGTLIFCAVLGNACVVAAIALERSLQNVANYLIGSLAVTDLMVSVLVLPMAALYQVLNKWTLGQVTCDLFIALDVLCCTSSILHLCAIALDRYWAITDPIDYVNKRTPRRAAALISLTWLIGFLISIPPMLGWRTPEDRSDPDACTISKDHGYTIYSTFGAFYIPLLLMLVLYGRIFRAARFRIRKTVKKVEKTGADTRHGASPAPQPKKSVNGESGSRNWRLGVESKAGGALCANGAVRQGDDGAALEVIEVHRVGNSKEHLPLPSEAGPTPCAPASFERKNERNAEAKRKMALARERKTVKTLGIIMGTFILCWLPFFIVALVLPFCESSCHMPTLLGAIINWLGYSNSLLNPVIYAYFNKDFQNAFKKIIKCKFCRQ

D(3) dopamine receptor = D(3) dopamine receptor (Homo sapiens, UniProt P35462); assay: Binding affinity towards human dopamine receptor D3 expressed in CHO cells using the radioligand [125I]iodosulpiride; type: cell-based
Chain of D(3) dopamine receptor (P35462 whole entry): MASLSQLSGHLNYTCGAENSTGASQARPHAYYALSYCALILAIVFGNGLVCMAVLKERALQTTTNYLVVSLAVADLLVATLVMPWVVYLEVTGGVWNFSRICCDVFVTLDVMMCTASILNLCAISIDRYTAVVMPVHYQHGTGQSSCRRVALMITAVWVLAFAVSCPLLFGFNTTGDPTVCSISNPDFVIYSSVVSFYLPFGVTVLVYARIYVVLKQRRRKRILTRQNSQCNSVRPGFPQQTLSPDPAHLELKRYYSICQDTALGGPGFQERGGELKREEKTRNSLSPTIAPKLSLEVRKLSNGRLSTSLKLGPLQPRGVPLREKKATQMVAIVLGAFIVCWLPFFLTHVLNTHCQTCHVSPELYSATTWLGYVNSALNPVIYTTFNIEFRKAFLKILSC

Chain of 5-hydroxytryptamine receptor 5A (P47898 whole entry): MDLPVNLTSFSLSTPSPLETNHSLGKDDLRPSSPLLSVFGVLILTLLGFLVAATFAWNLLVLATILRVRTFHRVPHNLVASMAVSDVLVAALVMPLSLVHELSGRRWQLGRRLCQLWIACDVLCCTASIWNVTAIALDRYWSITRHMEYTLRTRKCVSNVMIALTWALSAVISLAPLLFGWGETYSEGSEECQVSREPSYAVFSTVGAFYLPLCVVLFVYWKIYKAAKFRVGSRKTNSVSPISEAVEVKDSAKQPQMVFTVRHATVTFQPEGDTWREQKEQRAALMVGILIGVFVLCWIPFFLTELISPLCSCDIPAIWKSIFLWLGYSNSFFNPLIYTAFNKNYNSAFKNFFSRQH
Chain of 5-hydroxytryptamine receptor 2B (P41595 whole entry): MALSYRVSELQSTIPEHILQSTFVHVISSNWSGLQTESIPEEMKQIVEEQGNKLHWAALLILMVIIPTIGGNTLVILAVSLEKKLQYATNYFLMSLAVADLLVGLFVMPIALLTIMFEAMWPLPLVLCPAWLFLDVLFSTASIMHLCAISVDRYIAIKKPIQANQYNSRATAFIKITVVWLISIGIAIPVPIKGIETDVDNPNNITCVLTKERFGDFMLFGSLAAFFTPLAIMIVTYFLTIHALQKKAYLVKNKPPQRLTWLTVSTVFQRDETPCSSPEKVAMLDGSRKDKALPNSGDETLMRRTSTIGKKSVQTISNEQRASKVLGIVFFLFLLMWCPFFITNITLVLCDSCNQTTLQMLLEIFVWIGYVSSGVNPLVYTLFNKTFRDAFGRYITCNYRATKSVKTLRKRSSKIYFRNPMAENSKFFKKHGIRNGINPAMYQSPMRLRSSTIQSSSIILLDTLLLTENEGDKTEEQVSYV
Chain of D(2) dopamine receptor (P14416 whole entry): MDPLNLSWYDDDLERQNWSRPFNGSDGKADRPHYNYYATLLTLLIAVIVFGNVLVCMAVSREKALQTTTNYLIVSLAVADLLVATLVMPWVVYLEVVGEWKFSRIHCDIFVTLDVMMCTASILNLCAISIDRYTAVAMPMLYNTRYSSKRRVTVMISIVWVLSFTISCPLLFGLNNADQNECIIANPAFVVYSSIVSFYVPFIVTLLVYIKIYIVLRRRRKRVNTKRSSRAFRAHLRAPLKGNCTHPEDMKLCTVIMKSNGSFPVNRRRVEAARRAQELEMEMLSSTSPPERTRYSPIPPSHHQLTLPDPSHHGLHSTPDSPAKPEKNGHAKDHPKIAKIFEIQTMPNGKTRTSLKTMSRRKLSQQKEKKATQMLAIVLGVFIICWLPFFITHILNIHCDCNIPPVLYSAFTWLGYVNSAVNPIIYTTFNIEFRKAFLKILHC
Chain of 5-hydroxytryptamine receptor 7 (P34969 whole entry): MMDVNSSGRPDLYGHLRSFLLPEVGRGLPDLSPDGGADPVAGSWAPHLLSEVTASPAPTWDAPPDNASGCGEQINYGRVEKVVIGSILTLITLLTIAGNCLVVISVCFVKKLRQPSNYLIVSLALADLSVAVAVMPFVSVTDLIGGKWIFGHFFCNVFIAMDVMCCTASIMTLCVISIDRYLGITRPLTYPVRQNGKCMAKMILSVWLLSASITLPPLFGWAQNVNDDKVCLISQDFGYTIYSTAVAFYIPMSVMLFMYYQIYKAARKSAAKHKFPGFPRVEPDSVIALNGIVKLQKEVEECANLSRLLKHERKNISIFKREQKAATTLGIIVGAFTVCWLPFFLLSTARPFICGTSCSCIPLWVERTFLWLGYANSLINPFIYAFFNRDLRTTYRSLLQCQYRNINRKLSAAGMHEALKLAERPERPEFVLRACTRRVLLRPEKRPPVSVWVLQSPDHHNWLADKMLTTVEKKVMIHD
Chain of 5-hydroxytryptamine receptor 1D (P28221 whole entry): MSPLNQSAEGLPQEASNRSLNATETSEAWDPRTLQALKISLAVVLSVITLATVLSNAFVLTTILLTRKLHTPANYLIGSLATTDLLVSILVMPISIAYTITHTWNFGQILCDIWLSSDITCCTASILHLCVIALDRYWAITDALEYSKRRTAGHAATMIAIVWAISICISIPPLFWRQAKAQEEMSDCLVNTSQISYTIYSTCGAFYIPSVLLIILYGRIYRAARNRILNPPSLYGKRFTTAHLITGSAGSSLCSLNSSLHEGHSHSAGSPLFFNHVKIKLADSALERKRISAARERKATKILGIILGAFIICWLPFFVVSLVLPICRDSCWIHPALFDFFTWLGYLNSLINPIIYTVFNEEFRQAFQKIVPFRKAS
Chain of 5-hydroxytryptamine receptor 2A (P28223 whole entry): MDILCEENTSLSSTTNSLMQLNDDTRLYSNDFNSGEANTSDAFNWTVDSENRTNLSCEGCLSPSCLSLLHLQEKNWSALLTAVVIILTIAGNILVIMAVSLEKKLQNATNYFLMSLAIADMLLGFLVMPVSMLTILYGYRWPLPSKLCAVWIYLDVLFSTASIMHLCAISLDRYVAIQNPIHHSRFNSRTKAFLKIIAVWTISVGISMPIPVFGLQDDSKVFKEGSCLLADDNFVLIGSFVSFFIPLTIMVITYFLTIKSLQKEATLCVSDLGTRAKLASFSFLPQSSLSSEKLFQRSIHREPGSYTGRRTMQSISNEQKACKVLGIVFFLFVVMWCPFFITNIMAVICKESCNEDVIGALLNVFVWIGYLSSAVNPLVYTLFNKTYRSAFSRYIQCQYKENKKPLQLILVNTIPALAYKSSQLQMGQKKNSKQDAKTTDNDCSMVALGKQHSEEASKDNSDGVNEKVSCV
Chain of 5-hydroxytryptamine receptor 6 (P50406 whole entry): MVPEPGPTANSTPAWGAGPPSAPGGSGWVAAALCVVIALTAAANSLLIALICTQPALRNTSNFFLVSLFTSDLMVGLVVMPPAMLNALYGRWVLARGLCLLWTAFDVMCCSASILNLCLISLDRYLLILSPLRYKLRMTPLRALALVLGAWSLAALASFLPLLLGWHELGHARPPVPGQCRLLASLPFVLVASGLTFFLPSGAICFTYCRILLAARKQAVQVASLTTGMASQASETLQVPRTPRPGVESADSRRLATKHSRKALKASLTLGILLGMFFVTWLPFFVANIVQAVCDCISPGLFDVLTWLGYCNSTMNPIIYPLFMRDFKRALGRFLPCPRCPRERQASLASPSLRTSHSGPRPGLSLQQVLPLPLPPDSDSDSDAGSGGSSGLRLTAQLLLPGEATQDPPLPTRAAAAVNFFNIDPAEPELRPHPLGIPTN
Chain of 5-hydroxytryptamine receptor 1B (P28222 whole entry): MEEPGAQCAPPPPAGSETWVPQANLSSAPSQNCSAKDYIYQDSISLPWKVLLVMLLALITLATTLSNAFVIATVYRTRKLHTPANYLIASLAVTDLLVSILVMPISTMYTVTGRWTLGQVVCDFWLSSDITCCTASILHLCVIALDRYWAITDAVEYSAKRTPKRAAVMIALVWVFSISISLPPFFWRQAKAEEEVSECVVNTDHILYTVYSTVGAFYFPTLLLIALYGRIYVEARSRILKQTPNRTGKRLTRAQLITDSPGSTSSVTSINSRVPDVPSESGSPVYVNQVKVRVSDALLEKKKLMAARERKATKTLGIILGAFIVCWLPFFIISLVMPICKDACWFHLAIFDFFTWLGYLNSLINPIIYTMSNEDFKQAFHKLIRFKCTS
Chain of 5-hydroxytryptamine receptor 1E (P28566 whole entry): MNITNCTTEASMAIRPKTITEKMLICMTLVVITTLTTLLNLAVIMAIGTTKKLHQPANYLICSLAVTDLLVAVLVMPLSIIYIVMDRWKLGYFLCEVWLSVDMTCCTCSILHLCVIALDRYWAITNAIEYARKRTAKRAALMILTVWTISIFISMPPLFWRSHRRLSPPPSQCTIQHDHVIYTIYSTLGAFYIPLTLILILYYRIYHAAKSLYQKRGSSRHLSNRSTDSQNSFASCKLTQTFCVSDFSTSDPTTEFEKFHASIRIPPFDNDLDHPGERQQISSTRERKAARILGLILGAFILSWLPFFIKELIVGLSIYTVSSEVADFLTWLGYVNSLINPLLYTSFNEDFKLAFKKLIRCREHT

SMILES: CN(C)CCN(Cc1ccc(-c2ccc(CNC3Cc4ccccc4C3)cc2)cc1)C(=O)CCC1CCCC1
pKi [1]: 6.60

SMILES: O=C(c1ccc2c(c1)OCO2)N(Cc1ccc(-c2ccc(CNCCc3ccccc3)cc2)cc1)Cc1cccnc1
pKi [1]: 6.70

SMILES: c1ccc(CCNCc2ccc(-c3ccc(CNC4CCN(Cc5ccccc5)CC4)cc3)cc2)cc1
pKi [1]: 6.90

SMILES: COc1cccc(CCN(Cc2ccc(-c3ccc(CNCCc4ccccc4)cc3)cc2)C(=O)/C=C/c2ccccc2)c1
pKi [1]: 6.30

SMILES: O=C(/C=C/c1ccccc1)N(Cc1ccc(-c2ccc(CNCc3ccc4c(c3)OCO4)cc2)cc1)Cc1cccnc1
pKi [1]: 6.00

SMILES: CN(C)CCN(Cc1ccc(-c2ccc(CNCCOc3ccccc3)cc2)cc1)C(=O)CCC1CCCC1
pKi [1]: 7.10

Compounds with a higher pKi [1], results first:

pKi [1]: 7.60
SMILES: O=C(CCC1CCCC1)N(Cc1ccc(-c2ccc(CNCCc3ccccc3)cc2)cc1)CC1CCCCN1 (stereo not given)

pKi [1]: 7.60
SMILES: CN(C)CCN(Cc1ccc(-c2ccc(CNCCc3ccccc3)cc2)nc1)C(=O)/C=C/c1ccccc1

pKi [1]: 7.50
SMILES: CN(C)CCN(Cc1ccc(-c2ccc(CNCCc3ccccc3)cc2)nc1)C(=O)CCC1CCCC1

pKi [1]: 7.90
SMILES: CN(C)CCN(Cc1ccc(-c2ccc(CNCCc3ccccc3)cn2)cc1)C(=O)CCC1CCCC1

pKi (D(2) dopamine receptor): 6.10 | pKi [2]: < 5.10 | pKi [3]: < 5.00 | pKi (D(4) dopamine receptor): 5.90 | pKi [4]: < 5.00 | pKi [5]: 6.00 | pKi [6]: 6.40 | pKi [7]: 6.80 | pKi [8]: 5.90 | pKi [1]: 7.60 | pKi [9]: 6.20 | pKi [10]: 6.70 | pKi [11]: 6.20 | pKi [12]: 6.10 | pKi (D(3) dopamine receptor): 6.00
SMILES: CN(C)CCN(Cc1ccc(-c2ccc(CNCCc3ccccc3)cc2)cc1)C(=O)/C=C/c1ccccc1

pKi (D(2) dopamine receptor): 5.90 | pKi [2]: 5.40 | pKi [3]: < 5.00 | pKi (D(4) dopamine receptor): 6.10 | pKi [4]: < 5.00 | pKi [5]: 5.40 | pKi [6]: 6.10 | pKi [7]: 6.40 | pKi [8]: 6.00 | pKi [1]: 8.20 | pKi [9]: 6.50 | pKi [10]: 6.50 | pKi [11]: 6.40 | pKi [12]: 6.30 | pKi (D(3) dopamine receptor): 6.20
SMILES: CN(C)CCN(Cc1ccc(-c2ccc(CNCCc3ccccc3)cc2)cc1)C(=O)CCC1CCCC1
